Measurements taken from patent publication US20220009894A1, “1,2,3,4-TETRAHYDROQUINOXALINE DERIVATIVE, PREPARATION METHOD THEREFOR AND APPLICATION THEREOF” (Abbisko Therapeutics Co., Ltd., priority 2019, published 2022).

What was measured:
RORγt-LBD = target: T1, RORγt-LBD (Homo sapiens, UniProt P51449); assay: Time-resolved fluorescence resonance energy-transfer assay (TR-FRET), co-activator peptide recruitment; type: biochemical; design: TR-FRET Biochemical Amax: unit not given here; conditions: for EC50: His-RORγt-LBD 30 nM, SRC peptide 500 nM, agonistic activity, averages of one or more measurements, read-out: TR-FRET Biochemical EC50/; for TR-FRET Biochemical Amax: upper activation limit, His-RORγt-LBD, SRC peptide
T1 sequence (P51449 269-508 limits assumed): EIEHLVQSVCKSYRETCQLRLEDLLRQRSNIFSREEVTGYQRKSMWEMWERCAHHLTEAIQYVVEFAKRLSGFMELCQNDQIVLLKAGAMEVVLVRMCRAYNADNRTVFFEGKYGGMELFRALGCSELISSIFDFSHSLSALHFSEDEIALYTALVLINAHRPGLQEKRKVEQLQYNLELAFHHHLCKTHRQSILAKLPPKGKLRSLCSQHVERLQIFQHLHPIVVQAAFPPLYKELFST
Procedure, shortened: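 Eu-anti-His-labelled His-RORγt-LBD (30 nM final) recruits biotin-SRC co-activator peptide (500 nM final), detected via APC-streptavidin (5 nM) and Eu-anti-His (0.25 nM). Buffer was Tris/KCl/EDTA at pH 7.0 with 0.01% Triton X-100 and 1 mM DTT. Compounds were tested at 7 points in 5-fold dilutions. Plates were incubated overnight at 4 °C then 1 h at RT, and agonism was read as the 665/615 nm ratio.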

RORγt = target: T2, RORγt (Homo sapiens, UniProt P51449); assay: RORγt cellular reporter gene detection assay; type: cell-based; conditions: 24 hrs; for EC50: HEK 293 cells co-transfected with pFN26A-RORγt-LBD and pG14.35, in presence of antagonist Ursolic acid, top concentration 50 μM; for Cellular Reporter Assay Amax: upper activation limit, HEK 293 cells, in presence of antagonist Ursolic acid;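 for Cellular Reporter Assay Amax: Ursolic Acid added as 5 µL of 20 µM medium per well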
T2 construct: The plasmid of pFN26A-RORγt-LBD and pG14.35 (Promega, Cat. No. E1370) were co-transfected into HEK 293 cells; expressed in transfected cells; host or cells: HEK 293 cells (Cat. No. GNHu18)
T2 sequence (P51449 269-508 limits assumed): T1 sequence (P51449 269-508 limits assumed)
Procedure, shortened: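 HEK293 cells co-transfected with RORγt-LBD and luciferase reporter plasmids, treated with Ursolic acid antagonist plus compound in 4-fold dilutions from 50 μM for 24 h at 37° C. Firefly and Renilla luminescence read; EC50 and Amax from four-parameter fit.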

Structure (SMILES) | EC50 (RORγt-LBD) | TR-FRET Biochemical Amax (RORγt-LBD) | EC50 (RORγt) | Cellular Reporter Assay Amax (RORγt)
N#Cc1ccc(F)c(-c2ccc3c(c2)N(S(=O)(=O)c2cccc(C(F)(F)F)c2)C[C@@H]2CN(CC(=O)O)CCN32)c1 [Example 96, (S)-2-(8-(5-cyano-2-fluorophe-nyl)-6-((3-(trifluoromethyl)phe-nyl)sulfonyl)-1,2,4,4a,5,6-hexa-hydro-3H-pyrazino[1,2-a]quin-oxalin-3-yl)acetic acid] | 31.4 nM | 0.43 | 2090 nM | 1.2
O=C(O)CCOC1CCN2c3ccc(-c4cc(F)cc(OC(F)F)c4)cc3N(S(=O)(=O)c3cccc(C(F)(F)F)c3)C[C@@H]2C1 (stereo partly drawn) [Example 109, 3-(((6aS)-3-(3-(difluoromethoxy)-5-fluorophenyl)-5-((3-(trifluoromethyl)phenyl)sulfonyl)-6,6a,7,8,9,10-hexahydro-5H-pyrido[1,2-a]quinoxalin-8-yl)oxy)propanoic acid] | 17.5 nM | 0.65 | 468 nM | 5.9
C[C@]1(OCCC(=O)O)CCN2c3ccc(-c4cc(F)cc(OC(F)F)c4)cc3N(S(=O)(=O)c3cccc(C(F)(F)F)c3)C[C@@H]2C1 [Example 114, 3-(((6aS,8S)-3-(3-(difluoro-methoxy)-5-fluorophenyl)-8-methyl-5-((3-(trifluorometh-yl)phenyl)sulfonyl)-6,6a,7,8,9,10-hexahydro-5H-py-rido[1,2-a]quinoxalin-8-yl)oxy)propanoic acid] | 113 nM | 0.51 | 969 nM | 5.3
CC(C)(C)OC(=O)C(C)(C)N1CCN2c3ccc(/C=C/c4c(Cl)cccc4C(F)(F)F)cc3N(S(=O)(=O)c3cccc(C(F)(F)F)c3)C[C@@H]2C1 [Example 52, tert-butyl (S,E)-2-(8-(2-chloro-6-(trifluoromethyl)styryl)-6-((3-(trifluoromethyl)phenyl)sul-fonyl)-1,2,4,4a,5,6-hexahydro-3H-pyrazino[1,2-a]quinoxalin-3-yl)-2-methylpropanoate] | 184 nM | 0.50 | ≥ 50000 nM | 
CC(C)(C(=O)O)N1CCN2c3ccc(-c4cc(F)cc(OC(F)F)c4)cc3N(S(=O)(=O)c3cccc(C(F)(F)F)c3)C[C@@H]2C1 [Example 54, (S)-2-(8-(3-(difluoromethoxy)-5-fluorophenyl)-6-((3-(trifluoromethyl)phenyl)sulfonyl)-1,2,4,4a,5,6-hexahydro-3H-pyrazino[1,2-a]quinoxalin-3-yl)-2-methylpropanoic acid] | 20.1 nM | 0.72 | 297 nM | 3.9
COC(=O)CN1CCN2c3ccc(-c4cc(F)cc(OC(F)F)c4)cc3N(S(=O)(=O)c3cc(C(F)(F)F)cnc3OCCO)C[C@@H]2C1 [Example 90, methyl (S)-2-(8-(3-(difluoromethoxy)-5-fluorophenyl)-6-((2-(2-hydroxyethoxy)-5-(trifluoromethyl)pyridin-3-yl)sulfonyl)-1,2,4,4a,5,6-hexahydro-3H-pyrazino[1,2-a]quinoxalin-3-yl)acetate] | 20.6 nM | 0.86 | 368 nM | 1.8
O=S(=O)(c1cccc(C(F)(F)F)c1)N1C[C@@H]2CC(O[C@@H]3O[C@H](CO)[C@@H](O)[C@H](O)[C@H]3O)CCN2c2ccc(-c3cc(F)cc(OC(F)F)c3)cc21 (stereo partly drawn) [Example 112, (2R,3R,4S,5S,6R)-2-(((6aS)-3-(3-(difluoromethoxy)-5-fluorophenyl)-5-((3-(trifluoromethyl)phenyl)sulfonyl)-6,6a,7,8,9,10-hexahydro-5H-pyrido[1,2-a]quinoxalin-8-yl)oxy)-6-(hydroxymethyl)tetrahydro-2H-pyran-3,4,5-triol] | 273 nM | 0.33 | 1940 nM | 5.6
C/C(=C\c1ccc2c(c1)N(S(=O)(=O)c1cccc(C(F)(F)F)c1)C[C@@H]1CN(C3(C(N)=O)CCC3)CCN21)c1c(F)cccc1Cl [Example 79, (S,E)-1-(8-(2-(2-chloro-6-fluorophenyl)prop-1-en-1-yl)-6-((3-(trifluoromethyl)phenyl)sulfonyl)-1,2,4,4a,5,6-hexahydro-3H-pyrazino[1,2-a]quinoxalin-3-yl)cyclobutane-1-carboxamide] | 28.2 nM | 1.15 | 267 nM | 2.8
O=C(O)CN1CCN2c3ccc(-c4cc(F)cc(OC(F)F)c4)cc3N(S(=O)(=O)c3cc(C(F)(F)F)cnc3OCCO)C[C@@H]2C1 [Example 91, (S)-2-(8-(3-(difluoromethoxy)-5-fluorophenyl)-6-((2-(2-hydroxyethoxy)-5-(trifluoromethyl)pyridin-3-yl)sulfonyl)-1,2,4,4a,5,6-hexahydro-3H-pyrazino[1,2-a]quinoxalin-3-yl)acetic acid] | 34.1 nM | 0.47 | 3760 nM | 4.1
CCOC(=O)CN1CCN2c3ccc(/C=C(\C)c4c(F)cccc4Cl)cc3N(S(=O)(=O)c3cccc(C(F)(F)F)c3)C[C@@H]2C1 [Example 43, ethyl (S,E)-2-(8-(2-(2-chloro-6-fluorophenyl)prop-1-en-1-yl)-6-((3-(trifluoromethyl)phenyl)sulfonyl)-1,2,4,4a,5,6-hexahydro-3H-pyrazino[1,2-a]quinoxalin-3-yl)acetate] | 17.2 nM | 0.87 | 162 nM | 3.0
O=S(=O)(c1cccc(C(F)(F)F)c1)N1C[C@H]2COCCN2c2ccc(-c3cc(F)cc(OC(F)F)c3)cc21 [Example 99] | 40.3 nM | 0.74 | 4840 nM | 6.3
NC(=O)N1CCN2c3ccc(-c4cc(F)cc(OC(F)F)c4)cc3N(S(=O)(=O)c3cccc(C(F)(F)F)c3)C[C@@H]2C1 [Example 61, (S)-8-(3-(difluoromethoxy)-5-fluorophenyl)-6-((3-(trifluoro-methyl)phenyl)sulfonyl)-1,2,4,4a,5,6-hexahydro-3H-pyra-zino[1,2-a]quinoxaline-3-car-boxamide] | 86 nM | 0.69 | 469 nM | 3.0
CC(=O)N1CCN2c3ccc(-c4cc(F)cc(OC(F)F)c4)cc3N(S(=O)(=O)c3cccc(C(F)(F)F)c3)C[C@@H]2C1 [Example 7, (S)-1-(8-(3-(difluoromethoxy)-5-fluorophenyl)-6-((3-(trifluoromethyl)phenyl)sulfonyl)-1,2,4,4a,5,6-hexahydro-3H-pyrazino[1,2-a]quinoxalin-3-yl)ethan-1-one] | 17.5 nM | 1.45 | 145 nM | 3.7
CN1c2ccc(C3=CC(C)(C)OC(C)(C)C3)cc2N(S(=O)(=O)c2cccc(C(F)(F)F)c2)C[C@@H]1CCC(=O)O [Example 118, (S)-3-(1-methyl-6-(2,2,6,6-tetramethyl-3,6-dihydro-2H-pyran-4-yl)-4-((3-(trifluoromethyl)phenyl)sulfonyl)-1,2,3,4-tetrahydroquinoxalin-2-yl)propanoic acid] | 204 nM | 0.36 | 223 nM | 1.0
O=S(=O)(c1cccc(C(F)(F)F)c1)N1C[C@@H]2CN(C3COC3)CCN2c2ccc(/C=C/c3c(Cl)cccc3C(F)(F)F)cc21 [Example 32, (S,E)-8-(2-chloro-6-(trifluoromethyl)styryl)-3-(oxetan-3-yl)-6-((3-(trifluoromethyl)phenyl)sulfonyl)-2,3,4,4a,5,6-hexahydro-1H-pyrazino[1,2-a]quinoxaline] | 10.8 nM | 0.93 | 599 nM | 4.3
O=S(=O)(c1cccc(C(F)(F)F)c1)N1CC2CSCCN2c2ccc(-c3cc(F)cc(OC(F)F)c3)cc21 (stereo not shown) [Example 100, 8-(3-(difluoromethoxy)-5-fluorophenyl)-6-((3-(trifluoromethyl)phenyl)sulfonyl)-1,2,4,4a,5,6-hexahydro-[1,4]thiazino[4,3-a]quinoxaline] | 91.7 nM | 0.84 | 3450 nM | 4.3
C/C(=C\c1ccc2c(c1)N(S(=O)(=O)c1cccc(C(F)(F)F)c1)C[C@@H]1CN(C(CO)(CO)C(N)=O)CCN21)c1c(F)cccc1Cl [Example 75, (S,E)-2-(8-(2-(2-chloro-6-fluorophenyl)prop-1-en-1-yl)-6-((3-(trifluoromethyl)phenyl)sulfonyl)-1,2,4,4a,5,6-hexahydro-3H-pyrazino[1,2-a]quinoxalin-3-yl)-3-hydroxy-2-(hydroxymethyl)propanamide] | 55.7 nM | 0.87 | 1190 nM | 3.7
